Results taken from patent publication US6783949B1, “Processes for determining whether a test substance contains lipases or lipase inhibitors” (Aventis Pharma Deutschland GmbH, priority 1999, dated 2004).

Target: T1, HSL (Rattus norvegicus, UniProt P15304)
T1 construct: The partially purified HSL can be stored at −70° C. for 4 to 6 weeks; from tissue; host or cells: rat epididymal fat cells (male Wistar rats)
T1 sequence (P15304 1-768 isoform P15304-2): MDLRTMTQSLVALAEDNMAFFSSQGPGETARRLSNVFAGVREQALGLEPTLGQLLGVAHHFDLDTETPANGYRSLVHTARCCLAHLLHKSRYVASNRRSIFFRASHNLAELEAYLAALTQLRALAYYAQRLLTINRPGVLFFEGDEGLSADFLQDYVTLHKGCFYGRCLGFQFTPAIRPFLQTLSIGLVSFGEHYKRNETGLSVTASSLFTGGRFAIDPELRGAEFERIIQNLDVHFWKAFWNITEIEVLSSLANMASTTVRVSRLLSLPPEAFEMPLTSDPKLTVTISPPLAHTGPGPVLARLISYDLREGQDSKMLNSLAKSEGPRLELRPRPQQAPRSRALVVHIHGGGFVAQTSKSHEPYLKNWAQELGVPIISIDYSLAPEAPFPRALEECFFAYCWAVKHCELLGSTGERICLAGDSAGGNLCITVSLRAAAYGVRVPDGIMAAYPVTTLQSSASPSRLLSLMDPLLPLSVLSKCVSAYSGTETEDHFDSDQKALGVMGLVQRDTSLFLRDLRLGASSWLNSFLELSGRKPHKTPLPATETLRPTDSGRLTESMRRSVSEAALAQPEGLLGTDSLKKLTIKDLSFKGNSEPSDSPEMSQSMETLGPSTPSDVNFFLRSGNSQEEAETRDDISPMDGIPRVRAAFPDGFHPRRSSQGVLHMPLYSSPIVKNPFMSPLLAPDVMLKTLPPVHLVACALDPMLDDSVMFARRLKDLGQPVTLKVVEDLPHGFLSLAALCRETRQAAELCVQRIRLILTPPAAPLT
Assay: Indirect NAG assay (extinction increase at 481 nm)
Type: biochemical
Conditions: for Absorption change, Decrease, 550 nm / Absorption change, Increase, 481 nm / Increase in the absorption at 481 nm: NAG 0.05 mg/ml
Procedure: A typical reaction is carried out at 30° C. for 60 min, for example in 1.5 ml Eppendorf vessels or 96-hole plates. […] 180 μl of the substrate solution (20 μg/ml of phosphatidylcholine, 10 μg/ml of phosphatidylinositol, 50 μg/ml of NAG in assay buffer) are added. After a preincubation for 15 min at 30° C., 20 μl of HSL in assay buffer are pipetted in and the extinction is immediately measured (see above) at 481 nm in a cuvette photometer (0.5 ml cuvette) or microtiter plate reader. After a certain incubation time, which is variable and depends on the chosen enzyme concentration and can be between 2 and 240 minutes, in this case incubation at 30° C. for 60 min, the extinction is measured again. The increase in the extinction in the yellow region, in this case at 481 nm, is a measure of the enzyme activity.
Isolated rat fat cells are obtained from epididymal fatty tissue from untreated male rats (Wistar, 220-250 g) by collagenase treatment according to published processes. The fat cells from 10 rats are washed three times by flotation with 50 ml each of homogenization buffer ([…], pH 7.4, 0.25 M sucrose, 1 mM ethylenediamine-N,N,N′,N′-tetraacetic acid (EDTA), 1 mM dithiothreitol (DTT), 10 μg/ml of leupeptin, 10 μg/ml of antipain, 20 μg/ml of pepstatin) and finally taken up in 10 ml of homogenization buffer. The fat cells are homogenized in a Teflon-in-glass homogenizer (Braun-Melsungen) by 10 strokes at 1500 rpm and 15° C. The homogenizate is centrifuged (Sorvall SM24 tubes, 5000 rpm, 10 min, 4° C.). The […] between the overlying fatty layer and the pellet is removed and the centrifugation is repeated. The […] resulting from this is centrifuged again (Sorvall SM24 tubes, 20,000 rpm, 45 min, 4° C.). […] After incubation for 60 min at 4° C. (shake at intervals of 15 min), the batch is centrifuged (Sorvall SM24 tubes, 3000 rpm, 10 min, 4° C.). The supernatant is brought to pH 5.2 by addition of glacial acetic acid and incubated at 4° C. for 30 min. […] The suspension is dialyzed overnight at 4° C. against 25 mM TRIS/HCl, pH 7.4, 50% glycerol, 1 mM DTT, and 10 μg/ml of leupeptin, pepstatin, and antipain and then applied to a hydroxylapatite column (0.1 g per 1 ml of suspension, equilibrated with 10 mM potassium phosphate, pH 7.0, 30% glycerol, 1 mM DTT). The column is washed with four volumes of equilibration buffer at a flow rate of 20 to 30 ml/h. The HSL is eluted with a volume of equilibration buffer which contains 0.5 M potassium phosphate, then dialyzed (see above) and concentrated 5 to 10 times by ultrafiltration (Amicon Diaflo PM 10 filter) at 4° C. The partially purified HSL can be stored at −70° C. for 4 to 6 weeks.
6 mg of phosphatidylcholine and 6 mg of phosphatidylinositol are dissolved in 1 ml of chloroform each. 10 mg of NAG are dissolved in 1 ml of chloroform. […] The chloroform (225 μl total volume) is completely removed by overblowing with a stream of N2. The dried substrate can be stored at 4° C. for up to three days. For the preparation of the phospholipid vesicles/micelles having intercalated NAG (on the test day), the dried substrate is taken up in 20 ml of assay buffer (25 mM TRIS/HCl, pH 7.4; 150 mM NaCl) and two ultrasonic treatments with an ultrasonic probe (Branson Sonifier type 11, standard microtip): 1st treatment setting 2, 2×1 min, in between in each case 1 min on ice; 2nd treatment setting 4, 2×1 min, in between in each case 1 min on ice. […] Before use as a substrate (within the next 2 h), the solution is additionally incubated on ice for 15 min.
The assay is carried out at 30° C. for 60 min in 1.5 ml Eppendorf vessels or 96-hole plates.

In the case of O=C(CCCCCCCCCCCNc1ccc([N+](=O)[O-])c2nonc12)OCC(O)CO (stereo not drawn) [Compound (3)], the Signal strength (20 μg of protein, 0.05 mg/ml of NAG) is reported as 0.6 to 0.7 OD, the “Absorption change, Decrease, 550 nm” value (HSL 1 μg, 60 min) is reported as 866 ± 94 arb. units and the “Absorption change, Increase, 481 nm” value (HSL 1 μg, 60 min) is reported as 156 ± 21 arb. units. The “Absorption change, Decrease, 550 nm” value (HSL 2 μg, 60 min) was 841 ± 78 arb. units, the “Absorption change, Increase, 481 nm” value (HSL 2 μg, 60 min) was 347 ± 40 arb. units and the “Increase in the absorption at 481 nm” value (HSL 5 μg, 1 min) was 12 ± 2 arb. units. For the same compound, the “Increase in the absorption at 481 nm” value (HSL 5 μg, 2 min) was 23 ± 4 arb. units, the “Increase in the absorption at 481 nm” value (HSL 5 μg, 5 min) was 45 ± 9 arb. units and the “Increase in the absorption at 481 nm” value (HSL 5 μg, 10 min) was 105 ± 18 arb. units. For the same compound, the “Increase in the absorption at 481 nm” value (HSL 5 μg, 15 min) was 155 ± 20 arb. units, the “Increase in the absorption at 481 nm” value (HSL 5 μg, 20 min) was 219 ± 31 arb. units and the “Increase in the absorption at 481 nm” value (HSL 5 μg, 30 min) was 295 ± 47 arb. units. For the same compound, the “Increase in the absorption at 481 nm” value (HSL 5 μg, 45 min) was 453 ± 52 arb. units, the “Absorption change, Decrease, 550 nm” value (HSL 5 μg, 60 min) was 779 ± 82 arb. units and the “Absorption change, Increase, 481 nm” value (HSL 5 μg, 60 min) was 791 ± 88 arb. units. The “Increase in the absorption at 481 nm” value (HSL 5 μg, 60 min) was 677 ± 70 arb. units, the “Increase in the absorption at 481 nm” value (HSL 5 μg, 75 min) was 831 ± 92 arb. units and the “Increase in the absorption at 481 nm” value (HSL 5 μg, 90 min) was 995 ± 82 arb. units. For the same compound, the “Increase in the absorption at 481 nm” value (HSL 5 μg, 120 min) was 1455 ± 102 arb. units, the “Increase in the absorption at 481 nm” value (HSL 5 μg, 180 min) was 1937 ± 121 arb. units and the “Absorption change, Decrease, 550 nm” value (HSL 7.5 μg, 60 min) was 759 ± 69 arb. units. The “Absorption change, Increase, 481 nm” value (HSL 7.5 μg, 60 min) was 1066 ± 120 arb. units, the “Increase in the absorption at 481 nm” value (HSL 10 μg, 1 min) was 19 ± 4 arb. units and the “Increase in the absorption at 481 nm” value (HSL 10 μg, 2 min) was 51 ± 9 arb. units. The “Increase in the absorption at 481 nm” value (HSL 10 μg, 5 min) was 102 ± 19 arb. units, the “Increase in the absorption at 481 nm” value (HSL 10 μg, 10 min) was 185 ± 26 arb. units and the “Increase in the absorption at 481 nm” value (HSL 10 μg, 15 min) was 288 ± 39 arb. units. For the same compound, the “Increase in the absorption at 481 nm” value (HSL 10 μg, 20 min) was 395 ± 36 arb. units, the “Increase in the absorption at 481 nm” value (HSL 10 μg, 30 min) was 517 ± 67 arb. units and the “Increase in the absorption at 481 nm” value (HSL 10 μg, 45 min) was 830 ± 57 arb. units. For the same compound, the “Absorption change, Decrease, 550 nm” value (HSL 10 μg, 60 min) was 650 ± 61 arb. units, the “Absorption change, Increase, 481 nm” value (HSL 10 μg, 60 min) was 1255 ± 141 arb. units and the “Increase in the absorption at 481 nm” value (HSL 10 μg, 60 min) was 1179 ± 110 arb. units. For the same compound, the “Increase in the absorption at 481 nm” value (HSL 10 μg, 75 min) was 1487 ± 104 arb. units, the “Increase in the absorption at 481 nm” value (HSL 10 μg, 90 min) was 1844 ± 130 arb. units and the “Increase in the absorption at 481 nm” value (HSL 10 μg, 120 min) was 2745 ± 195 arb. units. For the same compound, the “Increase in the absorption at 481 nm” value (HSL 10 μg, 180 min) was 3521 ± 254 arb. units, the “Absorption change, Decrease, 550 nm” value (HSL 15 μg, 60 min) was 540 ± 55 arb. units and the “Absorption change, Increase, 481 nm” value (HSL 15 μg, 60 min) was 2351 ± 205 arb. units. For the same compound, the “Increase in the absorption at 481 nm” value (HSL 20 μg, 1 min) was 5 ± 7 arb. units, the “Increase in the absorption at 481 nm” value (HSL 20 μg, 2 min) was 78 ± 12 arb. units and the “Increase in the absorption at 481 nm” value (HSL 20 μg, 5 min) was 193 ± 36 arb. units. The “Increase in the absorption at 481 nm” value (HSL 20 μg, 10 min) was 423 ± 62 arb. units, the “Increase in the absorption at 481 nm” value (HSL 20 μg, 15 min) was 617 ± 70 arb. units and the “Increase in the absorption at 481 nm” value (HSL 20 μg, 20 min) was 865 ± 93 arb. units. The “Increase in the absorption at 481 nm” value (HSL 20 μg, 30 min) was 1143 ± 216 arb. units, the “Increase in the absorption at 481 nm” value (HSL 20 μg, 45 min) was 1877 ± 206 arb. units and the “Absorption change, Decrease, 550 nm” value (HSL 20 μg, 60 min) was 287 ± 51 arb. units. The “Absorption change, Increase, 481 nm” value (HSL 20 μg, 60 min) was 2867 ± 199 arb. units, the “Increase in the absorption at 481 nm” value (HSL 20 μg, 60 min) was 2510 ± 295 arb. units and the “Increase in the absorption at 481 nm” value (HSL 20 μg, 75 min) was 3067 ± 310 arb. units. For the same compound, the “Increase in the absorption at 481 nm” value (HSL 20 μg, 90 min) was 3527 ± 188 arb. units, the “Increase in the absorption at 481 nm” value (HSL 20 μg, 120 min) was 4941 ± 410 arb. units and the “Increase in the absorption at 481 nm” value (HSL 20 μg, 180 min) was 5712 ± 399 arb. units. For the same compound, the “Absorption change, Decrease, 550 nm” value (HSL 25 μg, 60 min) was 198 ± 44 arb. units, the “Absorption change, Increase, 481 nm” value (HSL 25 μg, 60 min) was 3428 ± 270 arb. units and the “Absorption change, Decrease, 550 nm” value (HSL 30 μg, 60 min) was 115 ± 35 arb. units. The “Absorption change, Increase, 481 nm” value (HSL 30 μg, 60 min) was 3973 ± 244 arb. units, the “Increase in the absorption at 481 nm” value (HSL 40 μg, 1 min) was 91 ± 14 arb. units and the “Increase in the absorption at 481 nm” value (HSL 40 μg, 2 min) was 89 ± 32 arb. units. The “Increase in the absorption at 481 nm” value (HSL 40 μg, 5 min) was 395 ± 62 arb. units, the “Increase in the absorption at 481 nm” value (HSL 40 μg, 10 min) was 784 ± 88 arb. units and the “Increase in the absorption at 481 nm” value (HSL 40 μg, 15 min) was 1060 ± 144 arb. units.
